The first test deals with wild-type human cardiac sodium channel, hNav1.5 (Homo sapiens, UniProt Q14524). Nature of the test: Late INa screening assay (late sodium current, PatchXpress whole cell patch clamp). The format is cell-based. Conditions: compound at 10 μM.
Sequence of wild-type human cardiac sodium channel, hNav1.5 (Q14524 whole entry): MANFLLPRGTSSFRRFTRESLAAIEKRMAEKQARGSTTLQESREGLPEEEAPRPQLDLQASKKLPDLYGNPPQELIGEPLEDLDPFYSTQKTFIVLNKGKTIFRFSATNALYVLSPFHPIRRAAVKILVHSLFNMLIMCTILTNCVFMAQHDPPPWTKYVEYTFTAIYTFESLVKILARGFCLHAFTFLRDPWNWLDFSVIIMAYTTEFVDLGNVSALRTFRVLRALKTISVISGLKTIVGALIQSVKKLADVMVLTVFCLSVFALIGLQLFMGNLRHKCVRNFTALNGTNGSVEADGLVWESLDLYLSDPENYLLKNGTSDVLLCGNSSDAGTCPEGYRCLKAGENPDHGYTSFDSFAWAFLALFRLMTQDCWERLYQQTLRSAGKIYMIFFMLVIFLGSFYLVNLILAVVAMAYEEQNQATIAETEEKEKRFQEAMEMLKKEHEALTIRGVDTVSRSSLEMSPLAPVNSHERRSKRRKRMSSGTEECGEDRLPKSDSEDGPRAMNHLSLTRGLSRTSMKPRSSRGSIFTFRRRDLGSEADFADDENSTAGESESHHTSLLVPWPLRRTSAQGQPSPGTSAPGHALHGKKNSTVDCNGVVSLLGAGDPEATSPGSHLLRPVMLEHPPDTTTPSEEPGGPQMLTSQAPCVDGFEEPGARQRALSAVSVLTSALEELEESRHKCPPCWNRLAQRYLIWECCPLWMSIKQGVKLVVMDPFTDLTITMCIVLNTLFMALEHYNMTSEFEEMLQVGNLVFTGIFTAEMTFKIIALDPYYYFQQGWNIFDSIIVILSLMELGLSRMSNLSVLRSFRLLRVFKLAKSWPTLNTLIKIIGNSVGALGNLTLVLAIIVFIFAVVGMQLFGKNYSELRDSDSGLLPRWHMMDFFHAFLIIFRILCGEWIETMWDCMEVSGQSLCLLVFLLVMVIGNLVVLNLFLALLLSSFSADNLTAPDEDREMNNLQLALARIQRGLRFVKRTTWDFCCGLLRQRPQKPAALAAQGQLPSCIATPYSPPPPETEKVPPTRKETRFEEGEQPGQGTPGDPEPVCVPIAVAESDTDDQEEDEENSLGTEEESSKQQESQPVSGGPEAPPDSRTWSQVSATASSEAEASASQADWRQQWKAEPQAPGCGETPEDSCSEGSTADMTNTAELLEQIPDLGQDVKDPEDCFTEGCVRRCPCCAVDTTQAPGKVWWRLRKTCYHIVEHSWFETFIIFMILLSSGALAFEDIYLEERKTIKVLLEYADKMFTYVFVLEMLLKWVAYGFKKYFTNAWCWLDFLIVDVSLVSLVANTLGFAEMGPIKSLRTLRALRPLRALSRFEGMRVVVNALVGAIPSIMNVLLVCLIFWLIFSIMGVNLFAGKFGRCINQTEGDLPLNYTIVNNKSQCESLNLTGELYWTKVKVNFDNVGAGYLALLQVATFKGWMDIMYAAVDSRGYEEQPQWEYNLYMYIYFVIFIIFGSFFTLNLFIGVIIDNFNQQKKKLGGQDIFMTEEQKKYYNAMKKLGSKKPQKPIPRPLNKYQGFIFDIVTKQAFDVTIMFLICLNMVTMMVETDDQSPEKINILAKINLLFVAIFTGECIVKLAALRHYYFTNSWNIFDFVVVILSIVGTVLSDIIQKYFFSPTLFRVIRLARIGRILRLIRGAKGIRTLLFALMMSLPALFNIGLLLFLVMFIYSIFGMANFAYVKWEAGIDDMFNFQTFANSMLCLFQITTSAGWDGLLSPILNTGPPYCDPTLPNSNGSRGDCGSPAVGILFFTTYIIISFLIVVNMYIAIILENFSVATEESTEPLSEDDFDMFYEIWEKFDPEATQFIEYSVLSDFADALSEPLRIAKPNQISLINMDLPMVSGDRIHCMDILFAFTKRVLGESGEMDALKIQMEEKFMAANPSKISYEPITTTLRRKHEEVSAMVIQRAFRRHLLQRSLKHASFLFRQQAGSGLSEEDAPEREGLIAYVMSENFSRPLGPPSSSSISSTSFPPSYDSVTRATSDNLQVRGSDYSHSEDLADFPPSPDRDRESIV
Regarding `CC1=C(C(=O)OC(C)C)C(c2c[nH]nc2-c2ccc(F)cc2)C(C(=O)OC(C)C)=C(C)N1` [PT-128, diisopropyl 4-(3-(4-fluorophenyl)-1H-pyrazol-4-yl)-2,6-dimethyl-1,4-dihydropyridine-3,5-dicarboxylate], the “Late INa % blk” value came to 34.1%.

Staying with this test, now noted: compound at 10 μM; read-out: Late INa % blk.
Regarding `CC1=C(C(=O)OCc2ccccc2)C(c2ccc(B(O)O)cc2)n2nnnc2N1` (centres unmarked) [PT-300, 4-(6-(benzyloxycarbonyl)-5-methyl-4,7-dihydrotetrazolo[1,5-a]pyrimidin-7-yl)phenylboronic acid], the inhibition at 10 µM amounted to 14.4%. In the case of `COc1ccc2ccccc2c1C1C(C(=O)O[C@@H](C)c2ccccc2)=C(C)Nc2nnnn21` (stereo partly drawn) [PT-053, (S)-1-phenylethyl 7-(2-methoxynaphthalen-1-yl)-5-methyl-4,7-dihydrotetrazolo[1,5-a]pyrimidine-6-carboxylate], the inhibition at 10 µM was 53.6%. In the case of `CCOC(=O)C1=C(C)N(Cc2nnn[nH]2)c2nnnn2C1c1cccc2ccccc12` (centres unmarked) [PT-444, ethyl 4-((1H-tetrazol-5-yl)methyl)-5-methyl-7-(naphthalen-1-yl)-4,7-dihydrotetrazolo[1,5-a]pyrimidine-6-carboxylate], the inhibition at 10 µM was found to be 9.1%. The same measure, in the same setting: the result for `CCOC(=O)C1=C(C)Nc2nnnn2C1c1ccccc1OCc1ccc(C(=O)O)cc1` (centres unmarked) [PT-285, 4-((2-(6-(ethoxycarbonyl)-5-methyl-4,7-dihydrotetrazolo[1,5-a]pyrimidin-7-yl)phenoxy)methyl)benzoic acid] reads -2.2%; that for `CCOC(=O)CN1C(C)=C(C(=O)OCc2ccccc2)C(c2cccc3ccccc23)n2nnnc21` (centres unmarked) [PT-331, benzyl 4-(2-ethoxy-2-oxoethyl)-5-methyl-7-(naphthalen-1-yl)-4,7-dihydrotetrazolo[1,5-a]pyrimidine-6-carboxylate], 29.6%; that for `CC1=C(C(=O)OCc2ccccc2)C(c2cccc3ccccc23)n2nnnc2N1CC#N` (centres unmarked) [PT-337, benzyl 4-(cyanomethyl)-5-methyl-7-(naphthalen-1-yl)-4,7-dihydrotetrazolo[1,5-a]pyrimidine-6-carboxylate], 30.2%. The same measure, in the same setting: the result for `CCOC(=O)C1=C(C)N(C)c2nnnn2C1c1cccc2ccccc12` (centres unmarked) [PT-015, ethyl 4,5-dimethyl-7-(naphthalen-1-yl)-4,7-dihydrotetrazolo[1,5-a]pyrimidine-6-carboxylate] reads 27.2%; that for `COC(=O)c1ccc(OCCOC(=O)C2=C(C)Nc3nnnn3C2c2cccc3ccccc23)cc1` (centres unmarked) [PT-251, 2-(4-(methoxycarbonyl)phenoxy)ethyl 5-methyl-7-(naphthalen-1-yl)-4,7-dihydrotetrazolo[1,5-a]pyrimidine-6-carboxylate], 11.5%. Still for that read-out and setting: next, `CCOC(=O)CN1C(C)=C(C(=O)OCC)C(c2cccc3ccccc23)n2nnnc21` (centres unmarked) [PT-449, ethyl 4-(2-ethoxy-2-oxoethyl)-5-methyl-7-(naphthalen-1-yl)-4,7-dihydrotetrazolo[1,5-a]pyrimidine-6-carboxylate]: 47.6%; `COCCOc1ccc(C2C(C(=O)OCc3ccccc3)=C(C)Nc3nnnn32)cc1` (centres unmarked) [PT-406, benzyl 7-(4-(2-methoxyethoxy)phenyl)-5-methyl-4,7-dihydrotetrazolo[1,5-a]pyrimidine-6-carboxylate]: 20.3%; `CCOC(=O)C1=C(C)NC2=C(C(=O)CCC2)C1c1ccc2cc(OC)ccc2c1` (centres unmarked) [PT-137, ethyl 4-(6-methoxynaphthalen-2-yl)-2-methyl-5-oxo-1,4,5,6,7,8-hexahydroquinoline-3-carboxylate]: 25.3%. `CC1=C(C(=O)OC(C)C)C(c2ccc(-c3ccc(Cl)cc3)o2)C(C(=O)OC(C)C)=C(C)N1` [PT-126, diisopropyl 4-(5-(4-chlorophenyl)furan-2-yl)-2,6-dimethyl-1,4-dihydropyridine-3,5-dicarboxylate]: the inhibition at 10 µM is -39%.

With `CCOC(=O)C1=C(C)Nc2[nH]ncc2C1c1cccc2ccccc12` (centres unmarked) [PT-075, ethyl 6-methyl-4-(naphthalen-1-yl)-4,7-dihydro-1H-pyrazolo[3,4-b]pyridine-5-carboxylate], the inhibition at 10 µM came out at 26.5%. Consider `COC(=O)C1=C(C)Nc2nnnn2C1c1c(-c2cccc(C(=O)O)c2)sc2ccccc12` (centres unmarked) [PT-275, 3-(3-(6-(methoxycarbonyl)-5-methyl-4,7-dihydrotetrazolo[1,5-a]pyrimidin-7-yl)benzo[b]thiophen-2-yl)benzoic acid], for which the inhibition at 10 µM was found to be 9.4%.

Turning to `N#CC1=C(N)OC2=C(C(=O)CC2)C1c1ccc(Br)cc1` (centres unmarked) [PT-093, 2-amino-4-(4-bromophenyl)-5-oxo-4,5,6,7-tetrahydrocyclopenta[b]pyran-3-carbonitrile], the inhibition at 10 µM was -2.6%. Still for that read-out and setting: the result for `CCOC(=O)C1=C(C)NC2=C(C(=O)CCC2)C1c1cc2cc(OC)ccc2nc1Cl` (centres unmarked) [PT-188, ethyl 2-chloro-6-methoxy-2′-methyl-5′-oxo-1′,4′,5′,6′,7′,8′-hexahydro-3,4′-biquinoline-3′-carboxylate] reads -0.8%; that for `COc1cc(Cl)ccc1COC(=O)C1=C(C)Nc2nnnn2C1c1ccccc1Br` (centres unmarked) [PT-308, 4-chloro-2-methoxybenzyl 7-(2-bromophenyl)-5-methyl-4,7-dihydrotetrazolo[1,5-a]pyrimidine-6-carboxylate], 53.4%; that for `CC1=C(C(=O)OCc2ccccc2)C(c2cccc3cccnc23)n2nnnc2N1` (centres unmarked) [PT-037, benzyl 5-methyl-7-(quinolin-8-yl)-4,7-dihydrotetrazolo[1,5-a]pyrimidine-6-carboxylate], 34.4%. Consider `CCOC(=O)C1=C(C(C)=O)C(c2cccc3ccccc23)n2nnnc2N1` (centres unmarked) [PT-465, ethyl 6-acetyl-7-(naphthalen-1-yl)-4,7-dihydrotetrazolo[1,5-a]pyrimidine-5-carboxylate], for which the inhibition at 10 µM was found to be 10.5%.

For the compound `CC1=C(C(=O)N2CCN(c3ccc(C(=O)O)cc3)CC2)C(c2cccc3ccccc23)C2=C(CCCC2=O)N1` (centres unmarked) [PT-297, 4-(4-(2-methyl-4-(naphthalen-1-yl)-5-oxo-1,4,5,6,7,8-hexahydroquinoline-3-carbonyl)piperazin-1-yl)benzoic acid], the inhibition at 10 µM amounted to 4.9%. Regarding `CCOC(=O)C1=C(C)Nc2nnnn2C1c1cccc(Oc2cccc(C(=O)O)c2)c1` (centres unmarked) [PT-274, 3-(3-(6-(ethoxycarbonyl)-5-methyl-4,7-dihydrotetrazolo[1,5-a]pyrimidin-7-yl)phenoxy)benzoic acid], the inhibition at 10 µM is 16.8%.

As to `CC1=C(C(=O)O[C@@H](C)c2ccccc2)C(c2ccc(N(C)C)c3ccccc23)n2nnnc2N1` (stereo partly drawn) [PT-054, (S)-1-phenylethyl 7-(4-(dimethylamino)naphthalen-1-yl)-5-methyl-4,7-dihydrotetrazolo[1,5-a]pyrimidine-6-carboxylate], the inhibition at 10 µM was 72.4%. As to `CC1=C(C(=O)OCc2ccccc2)C(c2ccccc2B(O)O)n2nnnc2N1` (centres unmarked) [PT-255, 2-(6-(benzyloxycarbonyl)-5-methyl-4,7-dihydrotetrazolo[1,5-a]pyrimidin-7-yl)phenylboronic acid], the inhibition at 10 µM came to 20.6%. With `CCOC(=O)C1=C(C)Nc2nnnn2C1c1c(Cl)cccc1Cl` (centres unmarked) [PT-486, ethyl 7-(2,6-dichlorophenyl)-5-methyl-4,7-dihydrotetrazolo[1,5-a]pyrimidine-6-carboxylate], the inhibition at 10 µM came to 30.8%.

With `CC1=C(C(=O)OCc2ccccc2)C(c2ccc3ccccc3c2)C(C(=O)OCc2ccccc2)=C(C)N1` [PT-129, dibenzyl 2,6-dimethyl-4-(naphthalen-2-yl)-1,4-dihydropyridine-3,5-dicarboxylate], the inhibition at 10 µM came out at 17.6%.

Regarding `CC1=C(C(=O)OC(C)C)C(c2cnn(-c3ccccc3C)c2C)C2=C(CC(C)(C)CC2=O)N1` (centres unmarked) [PT-161, isopropyl 2,7,7-trimethyl-4-(5-methyl-1-o-tolyl-1H-pyrazol-4-yl)-5-oxo-1,4,5,6,7,8-hexahydroquinoline-3-carboxylate], the inhibition at 10 µM came out at 6.8%. Consider `COC(=O)C1=C(C)Nc2nnnn2C1c1c(Br)sc2ccc(Cl)cc12` (centres unmarked) [PT-517, methyl 7-(2-bromo-5-chlorobenzo[b]thiophen-3-yl)-5-methyl-4,7-dihydrotetrazolo[1,5-a]pyrimidine-6-carboxylate], for which the inhibition at 10 µM came to 43.3%. The same measure, in the same setting: next, `CC1=C(C(=O)OCc2ccccc2)[C@@H](c2ccccc2-c2ccc(C#N)cc2)n2nnnc2N1` [PT-243, (R)-benzyl 7-(4′-cyanobiphenyl-2-yl)-5-methyl-4,7-dihydrotetrazolo[1,5-a]pyrimidine-6-carboxylate]: 91.5%; `COc1cc(N(C)C)ccc1C1C(C(=O)OCc2ccccc2)=C(C)Nc2nnnn21` (centres unmarked) [PT-408, benzyl 7-(4-(dimethylamino)-2-methoxyphenyl)-5-methyl-4,7-dihydrotetrazolo[1,5-a]pyrimidine-6-carboxylate]: 30.4%.

Take `CC1=C(C(=O)OCc2ccccc2)C(c2ccccc2-c2cccc(C(F)(F)F)c2)n2nnnc2N1` (centres unmarked) [PT-349, benzyl 5-methyl-7-(3′-(trifluoromethyl)biphenyl-2-yl)-4,7-dihydrotetrazolo[1,5-a]pyrimidine-6-carboxylate]: the inhibition at 10 µM stood at 77.3%. For the compound `COc1ccc(C2C(C(=O)OCc3ccc(Cn4cccn4)cc3)=C(C)Nc3nnnn32)c2ccccc12` (centres unmarked) [PT-284, 4-((1H-pyrazol-1-yl)methyl)benzyl 7-(4-methoxynaphthalen-1-yl)-5-methyl-4,7-dihydrotetrazolo[1,5-a]pyrimidine-6-carboxylate], the inhibition at 10 µM was 49.5%. On the same count and under the same terms, next, `CC1=C(C(=O)OCc2ccccc2)C(c2ccc(C(F)(F)F)cc2)n2nnnc2N1` (centres unmarked) [PT-358, benzyl 5-methyl-7-(4-(trifluoromethyl)phenyl)-4,7-dihydrotetrazolo[1,5-a]pyrimidine-6-carboxylate]: 7.4%; `CCOC(=O)C1=C(C)NC(C)=C(C(=O)OCC)C1c1ccc(C(=O)O)s1` [PT-112, 5-(3,5-bis(ethoxycarbonyl)-2,6-dimethyl-1,4-dihydropyridin-4-yl)thiophene-2-carboxylic acid]: -24.9%. The same measure, in the same setting: next, `CC1=C(c2nnc(Cc3ccccc3)o2)C(c2cccc3ccccc23)n2nnnc2N1` (centres unmarked) [PT-261, 2-benzyl-5-(5-methyl-7-(naphthalen-1-yl)-4,7-dihydrotetrazolo[1,5-a]pyrimidin-6-yl)-1,3,4-oxadiazole]: 59.4%.

The record behind these values is US20090012103A1, “SUBSTITUTED HETEROCYCLIC COMPOUNDS” (priority 2007, published 2009).
